Broadly, the IC50 is the concentration that gives 50% inhibition. Read a high IC50 as weaker potency in that assay.

The text below walks through data of patent US11497752B2, “Compounds and uses thereof” (Foghorn Therapeutics Inc., priority 2018, dated 2022).

For experiment [1], the target named is BRM (Homo sapiens, UniProt P51531). Description: ATPase catalytic activity of BRM (ADP-Glo in vitro biochemical assay). (In general: ADP-Glo first removes unused ATP, then detects ADP through luciferase.)
Chain of BRM (P51531 whole entry): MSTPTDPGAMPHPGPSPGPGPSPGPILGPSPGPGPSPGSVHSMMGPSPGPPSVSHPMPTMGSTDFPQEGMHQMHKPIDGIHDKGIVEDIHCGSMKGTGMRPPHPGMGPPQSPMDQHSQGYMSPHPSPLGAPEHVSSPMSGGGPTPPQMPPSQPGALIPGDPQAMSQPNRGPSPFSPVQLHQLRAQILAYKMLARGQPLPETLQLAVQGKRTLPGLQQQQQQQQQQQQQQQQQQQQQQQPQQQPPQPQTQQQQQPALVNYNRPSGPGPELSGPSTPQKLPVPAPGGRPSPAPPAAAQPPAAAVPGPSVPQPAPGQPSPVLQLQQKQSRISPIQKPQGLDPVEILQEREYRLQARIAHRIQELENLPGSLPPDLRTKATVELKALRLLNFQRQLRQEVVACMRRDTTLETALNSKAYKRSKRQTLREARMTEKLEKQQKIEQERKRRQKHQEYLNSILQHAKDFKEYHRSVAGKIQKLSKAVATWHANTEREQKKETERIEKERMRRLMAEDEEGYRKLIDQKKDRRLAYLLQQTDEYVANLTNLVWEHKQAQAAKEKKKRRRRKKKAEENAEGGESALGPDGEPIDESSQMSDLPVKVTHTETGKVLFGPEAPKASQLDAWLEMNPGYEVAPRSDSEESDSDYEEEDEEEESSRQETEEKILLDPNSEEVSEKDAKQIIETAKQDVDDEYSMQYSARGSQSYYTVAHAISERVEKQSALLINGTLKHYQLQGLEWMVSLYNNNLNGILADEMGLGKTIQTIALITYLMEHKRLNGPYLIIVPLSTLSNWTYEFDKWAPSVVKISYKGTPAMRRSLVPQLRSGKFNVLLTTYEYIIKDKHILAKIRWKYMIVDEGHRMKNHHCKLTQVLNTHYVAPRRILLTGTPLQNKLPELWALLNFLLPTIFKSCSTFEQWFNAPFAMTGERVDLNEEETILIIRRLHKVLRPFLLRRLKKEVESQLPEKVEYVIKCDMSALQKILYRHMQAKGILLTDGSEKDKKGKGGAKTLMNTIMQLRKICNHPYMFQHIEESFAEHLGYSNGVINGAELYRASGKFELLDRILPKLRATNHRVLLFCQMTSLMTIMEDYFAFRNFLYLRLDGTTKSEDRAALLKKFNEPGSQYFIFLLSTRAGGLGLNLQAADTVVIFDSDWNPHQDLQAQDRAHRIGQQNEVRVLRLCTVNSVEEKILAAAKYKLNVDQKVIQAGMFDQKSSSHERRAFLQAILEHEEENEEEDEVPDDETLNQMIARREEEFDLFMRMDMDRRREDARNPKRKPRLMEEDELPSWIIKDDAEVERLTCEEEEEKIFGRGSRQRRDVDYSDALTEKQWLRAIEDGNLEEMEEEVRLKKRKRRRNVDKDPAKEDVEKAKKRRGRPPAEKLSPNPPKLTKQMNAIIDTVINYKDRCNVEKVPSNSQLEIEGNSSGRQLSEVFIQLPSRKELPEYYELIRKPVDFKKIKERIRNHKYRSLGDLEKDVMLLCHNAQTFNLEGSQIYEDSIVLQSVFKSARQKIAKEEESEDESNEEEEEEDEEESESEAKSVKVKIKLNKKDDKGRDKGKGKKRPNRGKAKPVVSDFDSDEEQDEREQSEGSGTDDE
The target of experiment [2] is BRG-1 (Homo sapiens, UniProt P51532). The experiment is described as follows: ATPase catalytic activity of BRG-1 (ADP-Glo in vitro biochemical assay). Particulars: for BRG1 Max % Inhibition: Table 5.
Chain of BRG-1 (P51532 whole entry): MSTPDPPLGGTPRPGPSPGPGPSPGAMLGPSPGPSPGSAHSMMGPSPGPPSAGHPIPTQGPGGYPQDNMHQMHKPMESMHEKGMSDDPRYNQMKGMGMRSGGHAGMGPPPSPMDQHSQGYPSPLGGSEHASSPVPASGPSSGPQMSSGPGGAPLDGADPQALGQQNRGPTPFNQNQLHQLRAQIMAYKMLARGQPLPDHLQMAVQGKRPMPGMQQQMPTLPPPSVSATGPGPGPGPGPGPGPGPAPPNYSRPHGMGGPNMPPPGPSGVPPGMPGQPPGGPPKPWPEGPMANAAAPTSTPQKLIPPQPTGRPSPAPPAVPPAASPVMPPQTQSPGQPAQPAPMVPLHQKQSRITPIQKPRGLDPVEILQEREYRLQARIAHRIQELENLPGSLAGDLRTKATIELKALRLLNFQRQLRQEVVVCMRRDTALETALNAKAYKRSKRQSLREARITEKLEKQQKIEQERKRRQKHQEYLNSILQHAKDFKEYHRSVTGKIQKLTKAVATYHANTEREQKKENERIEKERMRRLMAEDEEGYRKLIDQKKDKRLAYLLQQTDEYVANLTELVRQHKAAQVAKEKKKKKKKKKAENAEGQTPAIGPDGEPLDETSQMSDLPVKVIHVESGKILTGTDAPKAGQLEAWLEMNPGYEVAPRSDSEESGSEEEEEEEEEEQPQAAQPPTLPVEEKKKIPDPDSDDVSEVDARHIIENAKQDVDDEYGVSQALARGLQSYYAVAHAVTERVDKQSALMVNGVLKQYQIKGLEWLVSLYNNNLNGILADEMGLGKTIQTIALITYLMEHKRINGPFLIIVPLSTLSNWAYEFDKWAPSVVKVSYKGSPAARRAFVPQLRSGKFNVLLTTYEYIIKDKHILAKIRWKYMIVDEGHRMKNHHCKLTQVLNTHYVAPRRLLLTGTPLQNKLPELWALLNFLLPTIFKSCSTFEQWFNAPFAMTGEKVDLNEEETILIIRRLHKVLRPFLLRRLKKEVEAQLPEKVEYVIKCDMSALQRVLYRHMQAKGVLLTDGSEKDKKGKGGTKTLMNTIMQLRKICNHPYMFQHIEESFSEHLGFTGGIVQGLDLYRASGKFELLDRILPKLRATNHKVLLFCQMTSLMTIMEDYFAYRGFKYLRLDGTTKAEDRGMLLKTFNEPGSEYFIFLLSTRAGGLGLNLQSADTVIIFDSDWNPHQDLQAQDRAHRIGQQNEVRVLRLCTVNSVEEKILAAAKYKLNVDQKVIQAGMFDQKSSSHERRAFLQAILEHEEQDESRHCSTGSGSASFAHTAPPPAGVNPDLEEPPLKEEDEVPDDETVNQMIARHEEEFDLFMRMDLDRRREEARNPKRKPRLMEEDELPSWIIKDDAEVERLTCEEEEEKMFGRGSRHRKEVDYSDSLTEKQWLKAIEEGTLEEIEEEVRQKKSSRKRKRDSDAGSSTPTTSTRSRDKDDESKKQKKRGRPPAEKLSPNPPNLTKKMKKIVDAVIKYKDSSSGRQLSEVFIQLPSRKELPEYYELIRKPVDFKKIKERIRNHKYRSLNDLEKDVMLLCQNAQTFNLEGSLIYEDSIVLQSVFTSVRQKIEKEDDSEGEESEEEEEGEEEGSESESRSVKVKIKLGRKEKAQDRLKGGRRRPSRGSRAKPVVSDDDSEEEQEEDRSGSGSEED

Regarding `Cc1cccc(-c2csc(NC(=O)CNC(=O)c3cccc(S(=O)(=O)N(C)C)c3)n2)c1` [Compound 1, 3-(dimethylsulfamoyl)-N-[2-[[4-(m-tolyl)thiazol-2-yl]amino]-2-oxo-ethyl]benzamide], the 50% inhibitory concentration (IC50) in experiment [1] was in the range of 1 to 10 µM. For the same compound, in experiment [1] (Table 5), the “BRM Max % Inhibition” value is on record as >95%. Besides, in experiment [2], the IC50 lay within 1 to 10 µM and the “BRG1 Max % Inhibition” value was >70%.
On to `CSCC[C@H](NC(=O)c1ccc(C)c(S(C)(=O)=O)c1)C(=O)Nc1nc(-c2ccccc2)cs1` [Compound 2, 4-methyl-N-[(1S)-3-methylsulfanyl-1-[(4-phenylthiazol-2-yl)carbamoyl]propyl]-3-methylsulfonyl-benzamide], for which the IC50 was < 1 µM in experiment [1] and 1 to 10 µM in experiment [2]. Further, the “BRM Max % Inhibition” value in experiment [1] (Table 5) is reported as >95%. Besides, the “BRG1 Max % Inhibition” value in experiment [2] was >95%.
In the case of `CSCC[C@H](NC(=O)c1cccc(S(C)(=O)=O)c1)C(=O)Nc1nc(-c2ccccc2)cs1` [Compound 3, (S)-3-(methylsulfonyl)-N-(4-(methylthio)-1-oxo-1-((4-phenylthiazol-2-yl)amino)butan-2-yl)benzamide], the concentration for half-maximal inhibition (IC50) in experiment [1] was 1 to 10 µM. Besides, the “BRM Max % Inhibition” value in experiment [1] (Table 5) is >95%. Also, in experiment [2], the 50% inhibitory concentration (IC50) lay in the range of 1 to 10 µM and the “BRG1 Max % Inhibition” value is on record as >90%.
For the compound `CNC(=O)c1cccc(-c2csc(NC(=O)CNC(=O)c3cccc(S(=O)(=O)N(C)C)c3)n2)c1` [Compound 4, 3-[2-[[2-[[3-(dimethylsulfamoyl)benzoyl]amino]acetyl]amino]thiazol-4-yl]-N-methyl-benzamide], the half-maximal inhibitory concentration (IC50) is 1 to 10 µM in experiment [1] and > 10 µM in experiment [2]. In addition, the “BRM Max % Inhibition” value in experiment [1] (Table 5) is on record as >90%. Besides, the “BRG1 Max % Inhibition” value in experiment [2] is reported as >70%.
On the same counts, the results for `CC(=O)NCc1cccc(-c2csc(NC(=O)CNC(=O)c3cccc(S(=O)(=O)N(C)C)c3)n2)c1` [Compound 5, N-[2-[[4-[3-(acetamidomethyl)phenyl]thiazol-2-yl]amino]-2-oxo-ethyl]-3-(dimethylsulfamoyl)benzamide] are > 10 µM, > 10 µM, >90% and >70%.
As to `CC(C)S(=O)(=O)c1cccc(C(=O)NCC(=O)Nc2nc(-c3ccccc3)cs2)c1` [Compound 6, 3-(isopropylsulfonyl)-N-(2-oxo-2-((4-phenylthiazol-2-yl)amino)ethyl)benzamide], the IC50 in experiment [1] was in the range of 1 to 10 µM. Besides, the “BRM Max % Inhibition” value in experiment [1] (Table 5) is reported as >90%. In addition, in experiment [2], the IC50 is > 10 µM and the “BRG1 Max % Inhibition” value was >60%.
Regarding `CN(C)S(=O)(=O)c1cccc(C(=O)NCC(=O)Nc2nc(-c3cccc(Br)c3)cs2)c1` [Compound 7], the IC50 in experiment [1] was 1 to 10 µM. Moreover, the “BRM Max % Inhibition” value in experiment [1] (Table 5) was >90%. In experiment [2], the 50% inhibitory concentration (IC50) fell in the range of 1 to 10 µM and the “BRG1 Max % Inhibition” value was >60%.
In experiment [1], `CN(C)S(=O)(=O)c1cccc(C(=O)NCC(=O)Nc2nc(-c3cccc(C#N)c3)cs2)c1` [Compound 8, N-[2-[[4-(3-cyanophenyl)thiazol-2-yl]amino]-2-oxo-ethyl]-3-(dimethylsulfamoyl)benzamide] yielded a half-maximal inhibitory concentration (IC50) of 1 to 10 µM. Also, in experiment [1] (Table 5), the “BRM Max % Inhibition” value is listed as >90%. For the same compound, in experiment [2], the IC50 was > 10 µM and the “BRG1 Max % Inhibition” value is recorded as >70%.
On to `COC(=O)c1cccc(-c2csc(NC(=O)CNC(=O)c3cccc(S(=O)(=O)N(C)C)c3)n2)c1` [Compound 9, methyl 3-[2-[[2-[[3-(dimethylsulfamoyl)benzoyl]amino]acetyl]amino]thiazol-4-yl]benzoate], for which, in experiment [1], the IC50 is < 1 µM. In addition, the “BRM Max % Inhibition” value in experiment [1] (Table 5) is given as >90%. In experiment [2], the IC50 was < 1 µM and the “BRG1 Max % Inhibition” value is listed as >60%.
Consider `CN(C)S(=O)(=O)c1cccc(C(=O)NCC(=O)Nc2nc(-c3cccc(CN)c3)cs2)c1` [Compound 10, N-[2-[[4-[3-(aminomethyl)phenyl]thiazol-2-yl]amino]-2-oxo-ethyl]-3-(dimethylsulfamoyl)benzamide], for which the IC50 in experiment [1] is > 10 µM. Moreover, the “BRM Max % Inhibition” value in experiment [1] (Table 5) is on record as >90%. Besides, in experiment [2], the half-maximal inhibitory concentration (IC50) is > 10 µM and the “BRG1 Max % Inhibition” value is >90%.
`CC(=O)NCc1ccc(-c2csc(NC(=O)CNC(=O)c3cccc(S(=O)(=O)N(C)C)c3)n2)cc1` [Compound 11, N-[2-[[4-[4-(acetamidomethyl)phenyl]thiazol-2-yl]amino]-2-oxo-ethyl]-3-(dimethylsulfamoyl)benzamide]: the IC50 in experiment [1] lay in the range of 1 to 10 µM. Moreover, the “BRM Max % Inhibition” value in experiment [1] (Table 5) is listed as >80%. Also, in experiment [2], the half-inhibitory concentration (IC50) is > 10 µM and the “BRG1 Max % Inhibition” value is recorded as >70%.
In the same order, the values of `CN(C)S(=O)(=O)c1cccc(C(=O)NCC(=O)Nc2nc(-c3ccccc3)cs2)c1` [Compound 13, 3-(dimethylsulfamoyl)-N-[2-oxo-2-[(4-phenylthiazol-2-yl)amino]ethyl]benzamide] are 1 to 10 µM, >80%, 1 to 10 µM and >30%.
In the same order, the values of `CSCC[C@H](NC(=O)c1cccc(S(=O)(=O)C(C)C)c1)C(=O)Nc1nc(-c2ccccc2)cs1` [Compound 14, (S)-3-(isopropylsulfonyl)-N-(4-(methylthio)-1-oxo-1-((4-phenylthiazol-2-yl)amino)butan-2-yl)benzamide] are 1 to 10 µM, >80%, > 10 µM and >60%.
On the same counts, the results for `CN(C)S(=O)(=O)c1cccc(C(=O)NCC(=O)Nc2nc(-c3ccc4c(c3)OCCO4)cs2)c1` [Compound 15, N-(2-((4-(2,3-dihydrobenzo[b][1,4]dioxin-6-yl)thiazol-2-yl)amino)-2-oxoethyl)-3-(N,N-dimethylsulfamoyl)benzamide] are 1 to 10 µM, >80%, 1 to 10 µM and >60%.
`Cc1ccccc1-c1csc(NC(=O)CNC(=O)c2cccc(S(=O)(=O)N(C)C)c2)n1` [Compound 16, 3-(dimethylsulfamoyl)-N-[2-[[4-(o-tolyl)thiazol-2-yl]amino]-2-oxo-ethyl]benzamide] registered an IC50 in experiment [1] of 1 to 10 µM. The “BRM Max % Inhibition” value in experiment [1] (Table 5) is reported as >80%. In experiment [2], the concentration for half-maximal inhibition (IC50) was > 10 µM and the “BRG1 Max % Inhibition” value was >60%.
In the same order, the values of `CCC[C@H](NC(=O)c1cccc(S(=O)(=O)N(C)C)c1)C(=O)Nc1nc(-c2ccccc2)cs1` [Compound 17, 3-(dimethylsulfamoyl)-N-[(1S)-1-[(4-phenylthiazol-2-yl)carbamoyl]butyl]benzamide] are 1 to 10 µM, >80%, > 10 µM and >60%.
On the same counts, the results for `CN(C)S(=O)(=O)c1cccc(C(=O)NCC(=O)Nc2nc(-c3ccccc3Br)cs2)c1` [Compound 18, N-[2-[[4-(2-bromophenyl)thiazol-2-yl]amino]-2-oxo-ethyl]-3-(dimethylsulfamoyl)benzamide] are > 10 µM, >80%, > 10 µM and >60%.
On the same counts, the results for `Cc1ccc(C(=O)NCC(=O)Nc2nc(-c3ccccc3)cs2)cc1S(C)(=O)=O` [Compound 19, 4-methyl-3-(methylsulfonyl)-N-(2-oxo-2-((4-phenylthiazol-2-yl)amino)ethyl)benzamide] are < 1 µM, >70%, > 10 µM and >30%.
Take `COc1ccc(C(=O)N[C@@H](CCSC)C(=O)Nc2nc(-c3ccccc3)cs2)cc1S(C)(=O)=O` [Compound 20, 4-methoxy-N-[(1S)-3-methylsulfanyl-1-[(4-phenylthiazol-2-yl)carbamoyl]propyl]-3-methylsulfonyl-benzamide]: the half-maximal inhibitory concentration (IC50) in experiment [1] was > 10 µM. In addition, the “BRM Max % Inhibition” value in experiment [1] (Table 5) is recorded as >70%. Also, in experiment [2], the half-maximal inhibitory concentration (IC50) is > 10 µM and the “BRG1 Max % Inhibition” value is recorded as >60%.
As for `CC(=O)NC[C@H](NC(=O)c1cccc(S(=O)(=O)N(C)C)c1)C(=O)Nc1nc(-c2ccccc2)cs1` [Compound 21, (S)—N-(3-acetamido-1-oxo-1-((4-phenylthiazol-2-yl)amino)propan-2-yl)-3-(N,N-dimethylsulfamoyl)benzamide], the IC50 in experiment [1] was > 10 µM. Besides, the “BRM Max % Inhibition” value in experiment [1] (Table 5) is reported as >70%. Also, in experiment [2], the 50% inhibitory concentration (IC50) is > 10 µM and the “BRG1 Max % Inhibition” value is given as >60%.
In experiment [1], `CSCC[C@H](NC(=O)c1ccc2[nH]ccc2c1)C(=O)Nc1nc(-c2ccccc2)cs1` [Compound 83, (S)—N-(4-(methylthio)-1-oxo-1-((4-phenylthiazol-2-yl)amino)butan-2-yl)-1H-indole-5-carboxamide] came in with an IC50 of 1 to 10 µM. Further, in experiment [1] (Table 5), the “BRM Max % Inhibition” value is listed as >90%.
Turning to `Cc1nnc(-c2cccc(-c3csc(NC(=O)CNC(=O)c4ccc(N)cc4)n3)c2)o1` [Compound 113, 4-amino-N-(2-((4-(3-(5-methyl-1,3,4-oxadiazol-2-yl)phenyl)thiazol-2-yl)amino)-2-oxoethyl)benzamide], the half-maximal inhibitory concentration (IC50) in experiment [1] is 0.1 to 1 µM.
On the same count and under the same terms, the figure for `Nc1ccc(C(=O)NCC(=O)Nc2nc(-c3cccc(-c4ccncc4)c3)cs2)cc1` [Compound 117, 4-amino-N-(2-oxo-2-((4-(3-(pyridin-4-yl)phenyl)thiazol-2-yl)amino)ethyl)benzamide] is < 0.1 µM.
Turning to `CSCC[C@@H](NC(=O)c1ccc(N)cc1)C(=O)Nc1nc(-c2cccc(-c3ccncc3)c2)cs1` [Compound 155, (R)-4-amino-N-(4-(methylthio)-1-oxo-1-((4-(3-(pyridin-4-yl)phenyl)thiazol-2-yl)amino)butan-2-yl)benzamide], the “BRM Max % Inhibition” value in experiment [1] (Table 6) is reported as >80%.
As to `Cc1cc(-c2cccc(-c3csc(NC(=O)CNC(=O)c4ccc(N)cc4)n3)c2)on1` [Compound 231, 4-amino-N-[2-[[4-[3-(3-methylisoxazol-5-yl)phenyl]thiazol-2-yl]amino]-2-oxo-ethyl]benzamide], the IC50 in experiment [1] lay in the range of 0.1 to 1 µM.
